According to US6914045B2, “Glycopeptide antibiotics” (Wyeth Holdings Corporation, priority 2001, dated 2005):
Converted amounts (≈) assume the structure as drawn.

Tests used:
Experiment in all cases: in vitro antibacterial evaluation, MIC by broth dilution
Format in all cases: cell-based
[1] = tested on: Escherichia coli; settings: 18 hours at 35° C.
[2] = tested on: Streptococcus sp.; settings: broth dilution, 18 hours at 35° C.
Procedure, shortened: (§1)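 Broth dilution per NCCLS standard M7-A2 in Muller-Hinton II […], with an inoculum of 5×10^5 CFU/mL and antibiotic spanning 64-0.06 μg/mL. The MIC is the lowest concentration that inhibits growth of the organism.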

[3] = tested on: Staphylococcus sp.; settings: broth dilution, 18 hours at 35° C.
Procedure, shortened: as §1

[4] = tested on: Enterococcus sp.; settings: broth dilution, 18 hours at 35° C.
Procedure, shortened: as §1

## CC(c1ccccc1)C1NC(=O)CNC(=O)C(CO)NC(=O)C(C(O)C2CN(Cc3ccc(C(F)(F)F)cc3)C(=N)N2C2OC(CO)C(O)C(O)C2O)NC(=O)C(C(O)C2CNC(=N)N2)NC(=O)C(Cc2ccc(OC3OC(CO)C(OC4OC5COC6(OC5C(O)C4O)C4CC5CC(C4)CC6C5)C(O)C3O)cc2)NC1=O (centres unmarked) [Example 226]
[1]
  MIC Escherichia coli (ATCC 25922): >128 µg/mL
  MIC Escherichia coli (GC 4559): 128 µg/mL (≈ 80.7 µM)
  MIC Escherichia coli (GC 4560): 4 µg/mL (≈ 2.52 µM)
[2]
  MIC Streptococcus agalactiae (GC 4564): 4 µg/mL (≈ 2.52 µM)
  MIC Streptococcus pneumoniae (ATCC 6301): 4 µg/mL (≈ 2.52 µM)
  MIC Streptococcus pneumoniae (GC 1894): 0.5 µg/mL (≈ 0.315 µM)
  MIC Streptococcus pneumoniae (GC 4565): 4 µg/mL (≈ 2.52 µM)
  MIC Streptococcus pyogenes (GC 4563): 2 µg/mL (≈ 1.26 µM)
[2]; inoculum 5×10^5 CFU/mL, strain ATCC 6301
  MIC Streptococcus pneumoniae (ATCC 6301): 4 µg/mL (≈ 2.52 µM)
[2]; inoculum 5×10^5 CFU/mL, strain GC 1894
  MIC Streptococcus pneumoniae (GC 1894): 0.5 µg/mL (≈ 0.315 µM)
[2]; inoculum 5×10^5 CFU/mL, strain GC 4563
  MIC Streptococcus pyogenes (GC 4563): 2 µg/mL (≈ 1.26 µM)
[2]; inoculum 5×10^5 CFU/mL, strain GC 4564
  MIC Streptococcus agalactiae (GC 4564): 4 µg/mL (≈ 2.52 µM)
[2]; inoculum 5×10^5 CFU/mL, strain GC 4565
  MIC Streptococcus pneumoniae (GC 4565): 4 µg/mL (≈ 2.52 µM)
[3]
  MIC Coagulase Negative Staphylococcus (GC 4547): 8 µg/mL (≈ 5.05 µM)
  MIC Coagulase Negative Staphylococcus (GC 4548): 8 µg/mL (≈ 5.05 µM)
  MIC Coagulase Negative Staphylococcus (GC 4549): 16 µg/mL (≈ 10.1 µM)
  MIC Coagulase Negative Staphylococcus (GC 4551): 8 µg/mL (≈ 5.05 µM)
  MIC Coagulase Negative Staphylococcus (GC 6257): 2 µg/mL (≈ 1.26 µM)
  MIC Staphylococcus aureus-SMITH (GC 4543): 8 µg/mL (≈ 5.05 µM)
  MIC Staphylococcus haemolyticus (GC 4546): 8 µg/mL (≈ 5.05 µM)
[3]; strain GC 4543
  MIC Staphylococcus aureus-SMITH (GC 4543): 8 µg/mL (≈ 5.05 µM)
[3]; strain GC 4546
  MIC Staphylococcus haemolyticus (GC 4546): 8 µg/mL (≈ 5.05 µM)
[3]; strain GC 4547
  MIC Coagulase Negative Staphylococcus (GC 4547): 8 µg/mL (≈ 5.05 µM)
[3]; strain GC 4548
  MIC Coagulase Negative Staphylococcus (GC 4548): 8 µg/mL (≈ 5.05 µM)
[3]; strain GC 4549
  MIC Coagulase Negative Staphylococcus (GC 4549): 16 µg/mL (≈ 10.1 µM)
[3]; strain GC 4551
  MIC Coagulase Negative Staphylococcus (GC 4551): 8 µg/mL (≈ 5.05 µM)
[3]; strain GC 6257
  MIC Coagulase Negative Staphylococcus (GC 6257): 2 µg/mL (≈ 1.26 µM)
[3]; strain ATCC 29213
  MIC Staphylococcus aureus (ATCC 29213): 16 µg/mL (≈ 10.1 µM)
[3]; strain GC 1131
  MIC Staphylococcus aureus (GC 1131): 16 µg/mL (≈ 10.1 µM)
[3]; strain GC 3051
  MIC Staphylococcus aureus (GC 3051): 16 µg/mL (≈ 10.1 µM)
[3]; strain GC 3053
  MIC Staphylococcus aureus (GC 3053): 16 µg/mL (≈ 10.1 µM)
[3]; strain GC 4541
  MIC Staphylococcus aureus (GC 4541): 8 µg/mL (≈ 5.05 µM)
[3]; strain GC 4542
  MIC Staphylococcus aureus (GC 4542): 16 µg/mL (≈ 10.1 µM)
[3]; strain GC 4544
  MIC Staphylococcus aureus (GC 4544): 16 µg/mL (≈ 10.1 µM)
[3]; strain GC 4545
  MIC Staphylococcus aureus (GC 4545): 16 µg/mL (≈ 10.1 µM)
[4]
  MIC Enterococcus avium (GC 4558): 8 µg/mL (≈ 5.05 µM)
  MIC Enterococcus faecalis (ATCC 29212): 32 µg/mL (≈ 20.2 µM)
  MIC Enterococcus faecalis (GC 2242): 16 µg/mL (≈ 10.1 µM)
  MIC Enterococcus faecalis (GC 2691): 32 µg/mL (≈ 20.2 µM)
  MIC Enterococcus faecalis (GC 3059): 32 µg/mL (≈ 20.2 µM)
  MIC Enterococcus faecalis (GC 4552): 32 µg/mL (≈ 20.2 µM)
  MIC Enterococcus faecalis (GC 4553): 16 µg/mL (≈ 10.1 µM)
  MIC Enterococcus faecalis (GC 4554): 32 µg/mL (≈ 20.2 µM)
  MIC Enterococcus faecalis (GC 6189): 32 µg/mL (≈ 20.2 µM)
  MIC Enterococcus faecium (GC 2243): 16 µg/mL (≈ 10.1 µM)
  MIC Enterococcus faecium (GC 4556): 32 µg/mL (≈ 20.2 µM)
  MIC Enterococcus faecium (GC 4557): 2 µg/mL (≈ 1.26 µM)
[4]; inoculum 5×10^5 CFU/mL, strain ATCC 29212
  MIC Enterococcus faecalis (ATCC 29212): 32 µg/mL (≈ 20.2 µM)
[4]; inoculum 5×10^5 CFU/mL, strain GC 2242
  MIC Enterococcus faecalis (GC 2242): 16 µg/mL (≈ 10.1 µM)
[4]; inoculum 5×10^5 CFU/mL, strain GC 2243
  MIC Enterococcus faecium (GC 2243): 16 µg/mL (≈ 10.1 µM)
[4]; inoculum 5×10^5 CFU/mL, strain GC 2691
  MIC Enterococcus faecalis (GC 2691): 32 µg/mL (≈ 20.2 µM)
[4]; inoculum 5×10^5 CFU/mL, strain GC 3059
  MIC Enterococcus faecalis (GC 3059): 32 µg/mL (≈ 20.2 µM)
[4]; inoculum 5×10^5 CFU/mL, strain GC 4552
  MIC Enterococcus faecalis (GC 4552): 32 µg/mL (≈ 20.2 µM)
[4]; inoculum 5×10^5 CFU/mL, strain GC 4553
  MIC Enterococcus faecalis (GC 4553): 16 µg/mL (≈ 10.1 µM)
[4]; inoculum 5×10^5 CFU/mL, strain GC 4554
  MIC Enterococcus faecalis (GC 4554): 32 µg/mL (≈ 20.2 µM)
[4]; inoculum 5×10^5 CFU/mL, strain GC 4556
  MIC Enterococcus faecium (GC 4556): 32 µg/mL (≈ 20.2 µM)
[4]; inoculum 5×10^5 CFU/mL, strain GC 4557
  MIC Enterococcus faecium (GC 4557): 2 µg/mL (≈ 1.26 µM)
[4]; inoculum 5×10^5 CFU/mL, strain GC 4558
  MIC Enterococcus avium (GC 4558): 8 µg/mL (≈ 5.05 µM)
[4]; inoculum 5×10^5 CFU/mL, strain GC 6189
  MIC Enterococcus faecalis (GC 6189): 32 µg/mL (≈ 20.2 µM)
